Legend:
hM2 = target: T1, hM2 (Homo sapiens, UniProt P08172); assay: Competitive [3H]NMS radioligand binding, CHO-K1 membranes expressing hM2; details: [3H]NMS, CHO-hM2 cell membrane preparations; >1000 values from two independent (single-concentration) experiments; read-out: Affinity: Ki ± SD hM2
T1 sequence (P08172 1-466): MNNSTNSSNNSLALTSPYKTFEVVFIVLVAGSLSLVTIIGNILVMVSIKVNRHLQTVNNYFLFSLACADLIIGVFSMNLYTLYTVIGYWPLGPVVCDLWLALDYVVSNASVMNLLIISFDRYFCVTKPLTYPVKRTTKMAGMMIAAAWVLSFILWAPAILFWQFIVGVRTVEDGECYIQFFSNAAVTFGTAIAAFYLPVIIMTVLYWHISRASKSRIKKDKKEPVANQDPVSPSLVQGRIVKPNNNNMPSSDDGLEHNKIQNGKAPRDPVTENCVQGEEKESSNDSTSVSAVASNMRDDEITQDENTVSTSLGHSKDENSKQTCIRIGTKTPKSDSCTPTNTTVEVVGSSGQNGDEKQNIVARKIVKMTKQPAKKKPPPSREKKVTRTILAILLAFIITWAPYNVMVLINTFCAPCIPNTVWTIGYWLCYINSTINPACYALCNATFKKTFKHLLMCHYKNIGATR
Source text: (§1) The arecaidine esters’ affinities towards the human mAChR subtypes hM1–hM5 were studied in a competitive radioligand binding assay using CHO-K1 cell membrane homogenates expressing a single mAChR subtype and tritiated N-methyl scopolamine methyl chloride ([^3H]NMS). To speed up our affinity testing regime, we subjected all test substances to preliminary single-concentration displacement assays, as described previously. Compounds with percent displacements below 75% at any of the subtypes were dropped from further investigations (Table S1). For compounds meeting the percent displacement threshold (8c, 10b, 10c, 17b, 18b, and 25), inhibition constants (Ki) were assessed in dose-dependent displacement experiments (Table 2).
(§2) Cell membranes bearing hM1-hM5 receptors were prepared as described previously. Briefly, stably transfected CHO-K1 cells were grown to at least 80% confluency in T175 flasks, washed with ice-cold DPBS, and scraped into a mixture of ice-cold 2 mL 10 mM Tris-HCl, 1 mM EDTA-buffer, pH 7.4 and 200 µL protease inhibitor. A cell homogenate was prepared by passing the cell suspension through a G29 needle. The cell homogenates corresponding to two T175 flasks were combined and subsequently centrifuged (10 min, 1000× g, 4 °C). Ultracentrifugation of the supernatant (1 h, 100,000× g, 4 °C) yielded a membrane pellet, which was suspended in 250 µL 50 mM Tris-HCl buffer, pH 7.4 and stored at −80 °C.
(§3) Then, 5 µL of test compound in DMSO, 50 µL of [^3H]NMS in assay buffer, and 445 µL of membrane suspension in assay buffer were incubated for 90 min at 23 °C in PP tubes. Maximum binding was measured by using 5 µL DMSO, and nonspecific binding was measured by using 5 µL of 1 µM scopolamine in DMSO. The effective concentration of [^3H]NMS was 0.2 nM, 0.3 nM, 0.8 nM, 0.2 nM, and 1 nM for M1–M5 and 4–30 µg membrane were used per tube. The membrane-bound radioactivity was recovered by filtration through Whatman™ GF/B glass fiber filters presoaked in aqueous 0.1% PEI using an M-36 tygon tubed cell harvester (Brandel®, Gaithersburg, MD, USA). Membranes were washed three times with ice-cold washing buffer (50 mM Tris, pH 7.4) before being dried, transferred to 2 mL scintillation cocktail (UltimaGold™, high flashpoint LSC cocktail, PerkinElmer, Waltham, MA, USA) and counted in a β-counter (Hidex TDCR liquid scintillation counter in CPM mode). IC50 values were calculated by a variable slope logistic regression using at least five distinct concentrations of test compounds, pipetted in triplicates.

hM1 = target: T2, hM1 (Homo sapiens, UniProt P11229); assay: Competitive [3H]NMS radioligand binding, CHO-K1 membranes expressing hM1; details: for Ki: [3H]NMS, CHO-hM1 cell membrane preparations, read-out: Affinity: Ki ± SD hM1; for x-Fold Selectivity for hM1 vs. hM2: ratio of the Ki values hM2/hM1; for x-Fold Selectivity for hM1 vs. hM3: ratio of the Ki values hM3/hM1; for x-Fold Selectivity for hM1 vs. hM4: ratio of the Ki values hM4/hM1; for x-Fold Selectivity for hM1 vs. hM5: ratio of the Ki values hM5/hM1
T2 sequence (P11229 1-460): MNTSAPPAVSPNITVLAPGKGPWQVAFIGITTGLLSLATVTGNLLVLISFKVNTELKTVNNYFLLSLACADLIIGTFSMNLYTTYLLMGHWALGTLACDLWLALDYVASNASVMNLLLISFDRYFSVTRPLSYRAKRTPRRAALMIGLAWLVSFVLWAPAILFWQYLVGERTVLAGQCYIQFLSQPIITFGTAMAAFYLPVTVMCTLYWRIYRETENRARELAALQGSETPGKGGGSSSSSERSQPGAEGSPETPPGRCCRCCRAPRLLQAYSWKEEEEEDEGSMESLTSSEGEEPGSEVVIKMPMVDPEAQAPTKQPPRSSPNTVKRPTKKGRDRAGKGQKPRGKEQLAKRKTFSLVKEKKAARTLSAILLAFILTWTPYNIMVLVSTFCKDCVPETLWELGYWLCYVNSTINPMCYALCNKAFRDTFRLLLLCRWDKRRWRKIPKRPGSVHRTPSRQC
Source text: as §1, §2, §3

[1] = High-throughput HPLC-logD; format: physicochemical; details: octadecyl-poly(vinyl alcohol) column, methanol / 0.01 M sodium phosphate buffer pH 7.4
Source text: For this, logD values were estimated in an HPLC-based high-throughput assay employing an octadecyl-poly(vinyl alcohol) stationary phase. The absence of silanol groups renders this type of column especially suited in case of analytes with hydrogen bond donor capabilities as it avoids overestimating their lipophilicity.
Briefly, a mixture of toluene (≥98%, Sigma-Aldrich, St. Louis, MO, USA) and triphenylene (≥99.9%, Carl Roth, Karlsruhe, Germany) was used as internal standard. Samples were dissolved in the internal standard mixture. Using gradient elution, the injection volume was set to 7 µL, the flow rate was 1.5 mL/min, and the mobile phase consisted of a mixture of methanol and 0.01 M sodium phosphate buffer pH 7.4. The HPLC-logD values were derived from the measured retention times following the previously published equation [21, 40].

hM3 = hM3 (Homo sapiens, UniProt P20309); assay: Competitive [3H]NMS radioligand binding, CHO-K1 membranes expressing hM3; details: [3H]NMS, CHO-hM3 cell membrane preparations; read-out: Affinity: Ki ± SD hM3
Source text: as §1, §2, §3

hM3, sequence (P20309 whole entry): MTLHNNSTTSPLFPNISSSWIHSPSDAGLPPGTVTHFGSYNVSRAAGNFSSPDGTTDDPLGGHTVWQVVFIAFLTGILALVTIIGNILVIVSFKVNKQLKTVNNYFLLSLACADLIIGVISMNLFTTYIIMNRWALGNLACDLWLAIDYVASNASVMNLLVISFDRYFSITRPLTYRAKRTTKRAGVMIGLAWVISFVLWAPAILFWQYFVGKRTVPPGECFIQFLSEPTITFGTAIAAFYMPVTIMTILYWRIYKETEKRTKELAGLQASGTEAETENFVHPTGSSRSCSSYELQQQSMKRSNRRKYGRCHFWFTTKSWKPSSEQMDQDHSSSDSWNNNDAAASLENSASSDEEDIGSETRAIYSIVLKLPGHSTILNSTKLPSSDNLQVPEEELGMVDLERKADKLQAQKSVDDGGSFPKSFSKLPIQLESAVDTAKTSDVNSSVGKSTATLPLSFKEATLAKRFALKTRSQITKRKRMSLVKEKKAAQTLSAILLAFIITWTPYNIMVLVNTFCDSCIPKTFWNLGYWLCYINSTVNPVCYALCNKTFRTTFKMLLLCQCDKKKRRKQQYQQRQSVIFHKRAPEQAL

Compound | Ki (hM2) [nM] | Ki (hM1) [nM] | x-Fold Selectivity for hM1 vs. hM2 (hM1) [x-fold] | x-Fold Selectivity for hM1 vs. hM3 (hM1) [x-fold] | x-Fold Selectivity for hM1 vs. hM4 (hM1) [x-fold] | x-Fold Selectivity for hM1 vs. hM5 (hM1) [x-fold] | chromatographic logD [1] | Ki (hM3) [nM]
CN1CCC=C(C(=O)OC(c2ccccc2)c2ccc(CO)cc2)C1 (centres unmarked) [Compound 10c, (4-(hydroxymethyl)phenyl)(phenyl)methyl 1-methyl-1,2,5,6-tetrahydropyridine-3-carboxylate] | 980 ± 32 | 74 ± 3.2 | 13.2 | 2.0 | 1.3 | 1.0 | 2.8 ± 0.2 | 150 ± 26
CN1CCC=C(C(=O)OCc2cccc(O)c2)C1 [Compound 18b, 3-hydroxybenzyl 1-methyl-1,2,5,6-tetrahydropyridine-3-carboxylate] | > 1000 | 259 ± 75 |  | 0.7 | 2.4 | 0.35 | 1.57 ± 0.04 | 188 ± 18
CN1CCC=C(C(=O)OCc2ccc(CO)cc2)C1 [Compound 8c, 4-(hydroxymethyl)benzyl 1-methyl-1,2,5,6-tetrahydropyridine-3-carboxylate] | > 1000 | 525 ± 36 | >1.9 | 1.3 | 1.3 | 0.8 | 1.03 ± 0.04 | 663 ± 56
CN1CCC=C(C(=O)OCC(O)(c2ccccc2)c2ccccc2)C1 [Compound 25, 2-hydroxy-2,2-diphenylethyl 1-methyl-1,2,5,6-tetrahydropyridine-3-carboxylate] | > 1000 | 231 ± 60 | >4.3 | 1.2 | 0.9 | 1.2 | 2.69 ± 0.01 | 283 ± 20
CN1CCC=C(C(=O)OC(c2ccccc2)c2cccc(O)c2)C1 (centres unmarked) [Compound 17b, (3-hydroxyphenyl)(phenyl)methyl 1-methyl-1,2,5,6-tetrahydropyridine-3-carboxylate] | 172 ± 20 | 5.5 ± 0.5 |  | 3.7 | 3.3 | 2.0 | 2.69 ± 0.01 | 20.4 ± 1.2
